The text below walks through data of patent publication US9012445B2, “Substituted 4-(1H-pyrazol-4-yl)benzyl analogues as positive allosteric modulators of mAChR M1 receptors” (Vanderbilt University, priority 2012, dated 2015).

This assay deals with T1, mAChR M1 (Homo sapiens, UniProt P11229).
T1 construct: expressed in transfected cells; host or cells: CHO-K1
T1 sequence (P11229 1-460): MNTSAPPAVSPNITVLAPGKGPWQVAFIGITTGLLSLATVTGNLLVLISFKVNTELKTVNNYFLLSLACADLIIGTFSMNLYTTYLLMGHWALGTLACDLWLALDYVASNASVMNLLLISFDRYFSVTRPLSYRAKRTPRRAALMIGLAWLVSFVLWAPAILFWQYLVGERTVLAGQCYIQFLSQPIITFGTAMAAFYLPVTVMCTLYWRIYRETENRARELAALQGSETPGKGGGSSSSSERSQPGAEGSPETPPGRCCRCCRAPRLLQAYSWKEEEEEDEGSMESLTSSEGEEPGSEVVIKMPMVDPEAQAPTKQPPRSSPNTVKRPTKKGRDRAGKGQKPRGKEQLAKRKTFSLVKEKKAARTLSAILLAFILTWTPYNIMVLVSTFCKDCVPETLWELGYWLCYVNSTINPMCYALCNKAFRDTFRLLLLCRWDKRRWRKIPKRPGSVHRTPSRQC
Description: mAChR M1 cell-based functional assay (calcium mobilization, potentiation of EC20 acetylcholine response in CHO-K1 cells). Particulars: for Emax: CHO-K1, maximal response of curve fit or response at 30 μM test compound, as % of response to an about EC80 ACh concentration, read-out: Emax (% ACh maximum at 30 μM); for EC50: positive allosteric modulation of EC20 acetylcholine response, >10,000 estimated where no plateau in the curve. The source says: Chinese hamster ovary (CHO-K1) cells stably expressing rat (r)M1 were purchased from the American Type Culture Collection and cultured according to their indicated protocol. CHO cells stably expressing human (h)M2, hM3, and hM5 were described previously (Levey, A. I., et al., J. Neurosci. 1991, 11, 3218-3226.); hM1 and hM4 cDNAs were purchased from Missouri S&T cDNA Resource; rM4 cDNA was provided by T. I. Bonner (National Institutes of Health, Bethesda, Md.). rM2 and rM3 were cloned from a rat brain cDNA library and sequence verified. hM1, rM2, rM3, hM4, and rM4 cDNAs were used to stably transfect CHO-K1 cells purchased from the American Type Culture Collection using Lipofectamine-2000. To make stable rM2, hM2, hM4, and rM4 cell lines for use in calcium mobilization assays, these cells also were stably transfected with a chimeric G-protein (Gqi5) (provided by B. R. Conklin, University of California, San Francisco) using Lipofectamine 2000. rM1, hM1, rM3, hM3, rM5, and hM5 cells were grown in Ham's F-12 medium containing 10% heat-inactivated fetal bovine serum (FBS), 20 mM HEPES, and 50 μg/mL G418 sulfate. rM2-Gqi5, hM2Gqi5, and hM4Gqi5 cells were grown in the same medium also containing 500 μg/mL Hygromycin B. Stable rM4Gqi5 cells were grown in DMEM containing 10% heat-inactivated FBS, 20 mM HEPES, 400 μg/mL G418 sulfate, and 500 μg/mL Hygromycin B.
For high throughput measurement of agonist-evoked increases in intracellular calcium, CHO-K1 cells stably expressing muscarinic receptors were plated in growth medium lacking G418 and hygromycin at 15,000 cells/20 μL/well in Greiner 384-well black-walled, tissue culture (TC)-treated, clear-bottom plates (VWR). Cells were incubated overnight at 37° C. and 5% CO2. The next day, cells were washed using an ELX 405 (BioTek) with four washes (80 μL) of assay buffer then […], 20 μL of Fluo-4/acetoxymethyl ester (Invitrogen, Carlsbad, Calif.) prepared as a 2.3 mM stock in DMSO and mixed in a 1:1 ratio with 10% (w/v) Pluronic F-127 and diluted in assay buffer was added to the wells and the cell plates were incubated for […] at 37° C. and 5% CO2. Dye was removed by washing with the ELX 405 (four 80 μL washes of assay buffer) then aspirated to 20 μL. Compound master plates were formatted in an 11 point CRC format (1:3 dilutions) in 100% DMSO with a starting concentration of 10 mM using the BRAVO liquid handler (Agilent). Test compound CRCs were then transferred to daughter plates ([…]) using the Echo acoustic plate reformatter (Labcyte, Sunnyvale, Calif.) and then diluted into assay buffer (40 μL) to a 2× stock using a Thermo Fisher Combi (Thermo Fisher Scientific, Waltham, Mass.).
Calcium flux was measured using the Functional Drug Screening System (FDSS) 6000 (Hamamatsu Corporation, Tokyo, Japan) as an increase in the fluorescent static ratio. Compounds were applied to cells (20 μL, 2×) using the automated system of the FDSS 6000 at 4 s into the 300 s protocol and the data were collected at 1 Hz. At 144 s into the 300 s protocol, 10 μL of an EC20 concentration of the muscarinic receptor agonist acetylcholine was added (5×), followed by the addition of 12 μL an EC80 concentration of acetylcholine at the 230 s time point (5×). Agonist activity was analyzed as a concentration-dependent increase in calcium mobilization upon compound addition. Positive allosteric modulator activity was analyzed as a concentration-dependent increase in the EC20 acetylcholine response. Antagonist activity was analyzed as a concentration-dependent decrease in the EC80 acetylcholine response. Concentration-response curves were generated using a four-parameter logistical equation in XLFit curve fitting software (IDBS, Bridgewater, N.J.) for Excel (Microsoft, Redmond, Wash.) or Prism (GraphPad Software, Inc., San Diego, Calif.).
The calcium mobilization assay was also used to determine “efficacy”. […]

What is called Emax is the greatest response seen or fitted, relative to the assay's reference. Broadly, the EC50 is the midpoint of the concentration-response curve. With `COc1cc2ccccc2n(Cc2ccc(-c3cnn(C)c3)cc2F)c1=O` [Compound B1, 1-(2-fluoro-4-(1-methyl-1H-pyrazol-4-yl)benzyl)-3-methoxyquinolin-2(1H)-one], the Emax stood at 31% and the EC50 is 2.4 µM.
For the molecule `Cn1cc(-c2ccc(Cn3cc(S(=O)(=O)CCNC(=O)c4ccno4)c4c(F)cc(F)cc43)c(F)c2)cn1` [Compound B2], the Emax stood at 27% and the EC50 was 2.8 µM.
The matching figures for `Cn1cc(-c2ccc(CN3C(=O)OCc4ccccc43)c(F)c2)cn1` [Compound B3, 1-(2-fluoro-4-(1-methyl-1H-pyrazol-4-yl)benzyl)-1H-benzo[d][1,3]oxazin-2(4H)-one]: 61% and 3.1 µM.
As to `Cn1cc(-c2ccc(Cn3cc(S(=O)(=O)CCNC(=O)c4cnccn4)c4c(F)cc(F)cc43)c(F)c2)cn1` [Compound B4, N-(2-((4,6-difluoro-1-(2-fluoro-4-(1-methyl-1H-pyrazol-4-yl)benzyl)-1H-indol-3-yl)sulfonyl)ethyl)pyrazine-2-carboxamide], the Emax worked out at 52% and the EC50 was 3.4 µM.
For `Cn1cc(-c2ccc(CN3Cc4ccccc4C3)c(F)c2)cn1` [Compound B5], in that order: 38% and 3.5 µM.
Regarding `Cn1cc(-c2ccc(Cn3c(=O)ccc4ccccc43)c(F)c2)cn1` [Compound B6], the Emax was 45% and the EC50 is 3.6 µM.
For `Cn1cc(-c2ccc(Cn3cc(S(C)(=O)=O)c4ccccc43)c(F)c2)cn1` [Compound B7], in that order: 64% and 3.9 µM.
For `Cc1cc(NC(=O)c2cn(Cc3ccc(-c4cnn(C)c4)cc3F)c3ccccc23)no1` [Compound B8], the Emax was found to be 43% and the EC50 was 5 µM.
For the molecule `Cn1cc(-c2ccc(Cn3cc(C(=O)Nc4cccnc4)c4ccccc43)c(F)c2)cn1` [Compound B9, 1-(2-fluoro-4-(1-methyl-1H-pyrazol-4-yl)benzyl)-N-(pyridin-3-yl)-1H-indole-3-carboxamide], the Emax is 50% and the 50% effective concentration (EC50) is 5.4 µM.
Take `Cn1cc(-c2ccc(Cn3cc(S(=O)(=O)CCNC(=O)c4cccnn4)c4c(F)cc(F)cc43)c(F)c2)cn1` [Compound B10]: the Emax came out at 36% and the EC50 was 5.6 µM.
Turning to `Cn1cc(-c2ccc(Cn3cc(S(=O)(=O)CCNC(=O)c4ccnnc4)c4c(F)cc(F)cc43)c(F)c2)cn1` [Compound B11], the Emax amounted to 45% and the EC50 was 7.6 µM.
Turning to `Cn1cc(-c2ccc(Cn3cc(S(=O)(=O)CCNC(=O)c4ccn[nH]4)c4c(F)cc(F)cc43)c(F)c2)cn1` [Compound B12], the Emax was found to be 31% and the EC50 is 8.1 µM.
`Cn1cc(-c2ccc(Cn3nc4ccccn4c3=O)c(F)c2)cn1` [Compound B13]: the Emax was 29% and the EC50 was 9.4 µM.
Regarding `Cn1cc(-c2ccc(Cn3c(=O)sc4ccccc43)c(F)c2)cn1` [Compound B14], the Emax worked out at 45% and the EC50 was greater than 10 µM.
For the molecule `Cn1cc(-c2ccc(CNc3ccccc3S(C)(=O)=O)c(F)c2)cn1` [Compound B15], the Emax was 34% and the EC50 was greater than 10 µM.
As for `Cn1cc(-c2ccc(CN3C(=O)CSc4ccccc43)c(F)c2)cn1` [Compound B16, 4-(2-fluoro-4-(1-methyl-1H-pyrazol-4-yl)benzyl)-2H-benzo[b][1,4]thiazin-3(4H)-one], the Emax was 32% and the EC50 is greater than 10 µM.
For `Cn1cc(-c2ccc(CNc3ccccc3[S+](C)[O-])c(F)c2)cn1` (centres unmarked) [Compound B17], in that order: 39% and greater than 10 µM.
For `Cn1cc(-c2ccc(CN3CC[S+]([O-])c4ccccc43)c(F)c2)cn1` (centres unmarked) [Compound B18], the Emax amounted to 31% and the EC50 is greater than 10 µM.
With `Cn1cc(-c2ccc(CN3C(=O)NCc4ccccc43)c(F)c2)cn1` [Compound B19], the Emax was 46% and the 50% effective concentration (EC50) was greater than 10 µM.
Consider `Cn1cc(-c2ccc(CN3C(=O)C[S+]([O-])c4ccccc43)c(F)c2)cn1` (centres unmarked) [Compound B20, 4-(2-fluoro-4-(1-methyl-1H-pyrazol-4-yl)benzyl)-2H-benzo[b][1,4]thiazin-3(4H)-one 1-oxide], for which the Emax was found to be 41% and the EC50 was greater than 10 µM.
Take `Cn1cc(-c2ccc(CN3C(=O)CS(=O)(=O)c4ccccc43)c(F)c2)cn1` [Compound B21, 4-(2-fluoro-4-(1-methyl-1H-pyrazol-4-yl)benzyl)-2H-benzo[b][1,4]thiazin-3(4H)-one 1,1-dioxide]: the Emax was 36% and the EC50 was greater than 10 µM.
On to `Cn1cc(-c2ccc(CN3C(=O)CCc4ccccc43)c(F)c2)cn1` [Compound B22], for which the Emax worked out at 44% and the 50% effective concentration (EC50) is greater than 10 µM.
On to `Cn1cc(-c2ccc(CN3C(=O)COc4ccccc43)c(F)c2)cn1` [Compound B23], for which the Emax was found to be 44% and the EC50 is greater than 10 µM.
As to `Cn1cc(-c2ccc(CN3c4ccccc4CS3(=O)=O)c(F)c2)cn1` [Compound B24, 1-(2-fluoro-4-(1-methyl-1H-pyrazol-4-yl)benzyl)-1,3-dihydrobenzo[c]isothiazole 2,2-dioxide], the Emax turned out to be 39% and the EC50 was greater than 10 µM.
Consider `Cn1cc(-c2ccc(CN3CC(C(=O)O)c4ccccc43)c(F)c2)cn1` (centres unmarked) [Compound B25], for which the Emax amounted to 52% and the EC50 is greater than 10 µM.
As for `Cn1cc(-c2ccc(CN3Cc4ccccc4C3C(=O)O)c(F)c2)cn1` (centres unmarked) [Compound B26], the Emax was determined as 61% and the EC50 was greater than 10 µM.
For `Cn1cc(-c2ccc(Cn3cc(C(=O)O)c4ccccc43)c(F)c2)cn1` [Compound B27], in that order: 48% and greater than 10 µM.
With `Cn1cc(-c2ccc(Cn3cc(C(=O)NCCc4ccccn4)c4ccccc43)c(F)c2)cn1` [Compound B28], the Emax was found to be 35% and the EC50 is greater than 10 µM.
The matching figures for `Cn1cc(-c2ccc(Cn3cc(S(=O)(=O)CCNC(=O)c4ccccn4)c4c(F)cc(F)cc43)c(F)c2)cn1` [Compound B29]: 34% and greater than 10 µM.
As for `Cn1cc(-c2ccc(Cn3cc(S(=O)(=O)CCNC(=O)c4cccc(F)c4)c4c(F)cc(F)cc43)c(F)c2)cn1` [Compound B30], the Emax is 35% and the EC50 is greater than 10 µM.
As to `Cn1cc(-c2ccc(Cn3cc(S(=O)(=O)CCNC(=O)c4ccncc4)c4c(F)cc(F)cc43)c(F)c2)cn1` [Compound B31], the maximum response (Emax) was determined as 30% and the EC50 is greater than 10 µM.
